The values below come from patent US20070253957A1, “Substituted N-Aryl-1H-Pyrazolo[3,4-B]Quinolin-4-Amines and Analogs as Activators of Caspases and Inducers of Apoptosis” (Cytovia, Inc., priority 2004, published 2007).

The subject of this assay is T-47D. Nature of the assay: Caspase cascade activation assay (N-(Ac-DEVD)-N'-ethoxycarbonyl-R110 fluorogenic substrate) in T-47D cells. The settings on record: 24 h incubation; for Caspase Activity Ratio: ratio of net RFU (T=3 h) to that of control samples, 0.16 to 10 μM final; for EC50: Homo sapiens, T47D, sigmoidal dose-response calculation, read-out: Caspase Potency EC50. The assay is classed as cell-based, Human. As for the experimental part:
Human breast cancer cell lines T-47D was grown according to media component mixtures designated by American Type Culture Collection+10% FCS (mvitrogen Corporation), in a 5% CO2-95% humidity incubator at 37° C. T-47D and ZR-75-1 cells were maintained at a cell density between 30 and 80% confluency and for HL-60 at a cell density of 0.1 to 0.6×10^6 cells/mL. Cells were harvested at 600×g and resuspended at 0.65×10^6 cells/mL into appropriate media+10% FCS. An aliquot of 45 μL of cells was added to a well of a 96-well microtiter plate containing 5 μL of a 10% DMSO in RPMI-1640 media solution containing 1.6 to 100 μM of 1,3-dimethyl-N-(4-methoxyphenyl)-1H-pyrazolo[3,4-b]quinolin-4-amine or other test compound (0.16 to 10 μM final). An aliquot of 45 μL of cells was added to a well of a 96-well microtiter plate containing 5 μL of a 10% DMSO in RPMI-1640 media solution without test compound as the control sample. The samples were mixed by agitation and then incubated at 37° C. for 24 h in a 5% CO2-95% humidity incubator. After incubation, the samples were removed from the incubator and 50 μL of a solution containing 20 μM of N-(Ac-DEVD)-N′-ethoxycarbonyl-R110 fluorogenic substrate (SEQ ID NO:1) (Cytovia, Inc.; U.S. Pat. No. 6,335,429), 20% sucrose (Sigma), 20 mM DTT (Sigma), 200 mM NaCl (Sigma), 40 mM Na PIPES buffer pH 7.2 (Sigma), and 500 μg/mL lysolecithin (Calbiochem) was added. The samples were mixed by agitation and incubated at room temperature. Using a fluorescent plate reader (Model 1420 Wallac Instruments), an initial reading (T=0) was made about 1-2 min after addition of the substrate solution, employing excitation at 485 nm and emission at 530 nm, to determine the background fluorescence of the control sample. After about 3 h of incubation, the samples were read for fluorescence as above (T=3 h).
The Relative Fluorescence Unit values (RFU) were used to calculate the sample readings as follows: RFU(T=3h)−Control RFU(T=0)=Net RFU(T=3h)
The activity of caspase cascade activation was determined by the ratio of the net RFU value for 1,3-dimethyl-N-(4-methoxyphenyl)-1H-pyrazolo[3,4-b]quinolin-4-amine to that of control samples. The EC50 (nM) was determined by a sigmoidal dose-response calculation (Prism 2.0, GraphPad Software Inc.).

For the compound `CC(=O)c1ccc(Nc2c3ccccc3nc3c2c(C)nn3C)cc1` [N-(4-Acetylphenyl)-1,3-dimethyl-1H-pyrazolo[3,4-b]quinolin-4-amine], the “Caspase Activity Ratio” value was 4.2 and the EC50 was 0.314 µM.
The like results for `CCOC(=O)c1ccc(N(C)c2c3c(nc4ccccc24)CCC3)cc1` [Example 17, N-(4-(Ethoxycarbonyl)phenyl)-N-methyl-2,3-dihydro-1H-cyclopenta[b]quinolin-9-amine] were, in that order, 9.3 and 5.12 µM.
For `CC(=O)c1ccc(Nc2c3ccccc3nc3c2c(C(C)C)nn3C)cc1` [Example 21, N-(4-Acetylphenyl)-1-methyl-3-isopropyl-1H-pyrazolo[3,4-b]quinolin-4-amine] the same measures were 1.1 and over 10 µM.
For `COC(=O)c1cccc(Nc2c3c(nc4ccccc24)CCC3)c1` [N-(3-(Methoxycarbonyl)phenyl)-2,3-dihydro-1H-cyclopenta[b]quinolin-9-amine] the same measures were 5.6 and 3.04 µM.
`Cc1ccc2nc3c(c(Nc4cccc(O)c4)c2c1)CCC3` [N-(3-Hydroxyphenyl)-7-methyl-2,3-dihydro-1H-cyclopenta[b]quinolin-9-amine]: the “Caspase Activity Ratio” value stood at 3.7 and the EC50 is 5.53 µM.
The like results for `Cc1nn(C)c2nc3ccccc3c(Nc3ccc(C(N)=O)cc3)c12` [Example 6, N-(4-Carbamoylphenyl)-1,3-dimethyl-1H-pyrazolo[3,4-b]quinolin-4-amine] were, in that order, 1.0 and over 10 µM.
In the case of `Cc1nn(C)c2nc3ccccc3c(Nc3ccc([S+](C)[O-])cc3)c12` (stereo not drawn) [Example 39, 1,3-Dimethyl-N-(4-methylsulfinylphenyl)-1H-pyrazolo[3,4-b]quinolin-4-amine], the “Caspase Activity Ratio” value was found to be 1.1 and the EC50 is over 10 µM.
The like results for `COc1ccc(Sc2c3ccccc3nc3c2c(C)nn3C)cc1` [Example 12, 4-(4-Methoxyphenylthio)-1,3-dimethyl-1H-pyrazolo[3,4-b]quinoline] were, in that order, 9.3 and 4.23 µM.
For `Cc1nn(C)c2nc3ccccc3c(Nc3ccc(C(=O)O)cc3)c12` [Example 47, N-(4-Carboxylphenyl)-1,3-dimethyl-1H-pyrazolo[3,4-b]quinolin-4-amine] the same measures were 1.1 and over 10 µM.
The like results for `COc1ccccc1Nc1c2c(nc3ccccc13)CCC2` [N-(2-Methoxyphenyl)-2,3-dihydro-1H-cyclopenta[b]quinolin-9-amine] were, in that order, 7.5 and 2.45 µM.
For `CCc1ccc(Nc2c3ccccc3nc3c2c(C)nn3C)cc1` [Example 22, N-(4-Ethylphenyl)-1,3-dimethyl-1H-pyrazolo[3,4-b]quinolin-4-amine], the “Caspase Activity Ratio” value came out at 1.1 and the EC50 was over 10 µM.
Turning to `CC(=O)Nc1ccc(Nc2c3ccccc3nc3c2c(C)nn3C)cc1` [Example 32, N-(4-Acetamidophenyl)-1,3-dimethyl-1H-pyrazolo[3,4-b]quinolin-4-amine], the “Caspase Activity Ratio” value stood at 1.1 and the EC50 was over 10 µM.
For the compound `CC(=O)c1ccc(Oc2c3ccccc3nc3c2c(C)nn3C)cc1` [Example 13, 4-(4-Acetylphenoxy)-1,3-dimethyl-1H-pyrazolo[3,4-b]quinoline], the “Caspase Activity Ratio” value is given as 7.5 and the EC50 is 4.32 µM.
With `Cc1nn(C)c2nc3ccccc3c(Nc3ccc(N=[N+]=[N-])cc3)c12` [Example 46, N-(4-Azidophenyl)-1,3-dimethyl-1H-pyrazolo[3,4-b]quinolin-4-amine], the “Caspase Activity Ratio” value was found to be 1.1 and the EC50 is over 10 µM.
Take `Cc1nn(C)c2nc3ccccc3c(Nc3ccc(S(C)(=O)=O)cc3)c12` [Example 34, 1,3-Dimethyl-N-(4-methylsulfonylphenyl)-1H-pyrazolo[3,4-b]quinolin-4-amine]: the “Caspase Activity Ratio” value is on record as 1.1 and the concentration giving a half-maximal response (EC50) was over 10 µM.
Consider `Cc1nn(C)c2nc3ccccc3c(Nc3ccc(C(=O)C(F)(F)F)cc3)c12` [Example 48, 1,3-Dimethyl-N-(4-(2,2,2-trifluoroacetyl)phenyl)-1H-pyrazolo[3,4-b]quinolin-4-amine], for which the “Caspase Activity Ratio” value came out at 1.1 and the EC50 is over 10 µM.
Regarding `CCOC(=O)c1ccc(Nc2c3c(nc4ccccc24)CCC3)cc1` [N-(4-(Ethoxycarbonyl)phenyl)-2,3-dihydro-1H-cyclopenta[b]quinolin-9-amine], the “Caspase Activity Ratio” value is given as 9.5 and the EC50 was 1.18 µM.
In the case of `COc1ccc(Nc2c3ccccc3nc3c2c(C)nn3C)cn1` [Example 7, 1,3-Dimethyl-N-(6-methoxypyridin-3-yl)-1H-pyrazolo[3,4-b]quinolin-4-amine], the “Caspase Activity Ratio” value is given as 1.0 and the EC50 is over 10 µM.
The like results for `CC(=O)c1cccc(Nc2c3c(nc4ccccc24)CCC3)c1` [N-(3-Acetylphenyl)-2,3-dihydro-1H-cyclopenta[b]quinolin-9-amine] were, in that order, 8.8 and 0.304 µM.
Take `CC(C)C(=O)c1cccc(N(C)c2c3c(nc4ccccc24)CCC3)c1` [Example 16, N-(3-Isobutyrylphenyl)-N-methyl-2,3-dihydro-1H-cyclopenta[b]quinolin-9-amine]: the “Caspase Activity Ratio” value amounted to 1.1 and the EC50 is over 10 µM.
In the case of `Cc1nn(C)c2nc3ccccc3c(Nc3ccc(C(=O)C(C)C)cc3)c12` [Example 44, N-(4-Isobutyrylphenyl)-1,3-dimethyl-1H-pyrazolo[3,4-b]quinolin-4-amine], the “Caspase Activity Ratio” value is reported as 4.3 and the EC50 was 0.248 µM.
Consider `Cc1nn(C)c2nc3ccccc3c(Nc3ccc(N)cc3)c12.Cl` [Example 45, N-(4-Aminophenyl)-1,3-dimethyl-1H-pyrazolo[3,4-b]quinolin-4-amine hydrochloride], for which the “Caspase Activity Ratio” value came out at 1.1 and the EC50 is over 10 µM.
Regarding `CC(=O)c1ccc(Nc2c3ccccc3nc3c2cnn3C)cc1` [Example 18, N-(4-Acetylphenyl)-1-methyl-1H-pyrazolo[3,4-b]quinolin-4-amine], the “Caspase Activity Ratio” value turned out to be 8.5 and the EC50 is 0.841 µM.
Turning to `CCc1ccccc1Nc1c2c(nc3ccccc13)CCC2` [N-(2-Ethylphenyl)-2,3-dihydro-1H-cyclopenta[b]quinolin-9-amine], the “Caspase Activity Ratio” value is on record as 6.5 and the concentration giving a half-maximal response (EC50) is 2.96 µM.
The like results for `COC(=O)c1ccc(Nc2c3c(nc4ccccc24)CCC3)cc1` [N-(4-(Methoxycarbonyl)phenyl)-2,3-dihydro-1H-cyclopenta[b]quinolin-9-amine] were, in that order, 4.8 and 0.34 µM.
Consider `CC(=O)c1cccc(Nc2c3ccccc3nc3c2c(C)nn3C)c1` [Example 5, N-(3-Acetylphenyl)-1,3-dimethyl-1H-pyrazolo[3,4-b]quinolin-4-amine], for which the “Caspase Activity Ratio” value was determined as 1.0 and the EC50 was over 10 µM.
Take `COc1cccc(Nc2c3ccccc3nc3c2c(C)nn3C)c1` [Example 8, 1,3-Dimethyl-N-(3-methoxyphenyl)-1H-pyrazolo[3,4-b]quinolin-4-amine]: the “Caspase Activity Ratio” value turned out to be 3.9 and the EC50 is 5.83 µM.
